According to patent publication US7250410B2, “Cyclic nucleotide phosphodiesterase inhibitors, preparation and uses thereof” (Via Pharmaceuticals, Inc., priority 2001, dated 2007):
pIC50: −log10 of the molar value. Values joined by “and” are separate entries in the source; they are usually repeats but may differ in a detail not shown here. Identical values can stand only once.

Target: PDE4
Experiment: Inhibition of PDE4, radioenzymatic phosphodiesterase assay
Format: biochemical, bovine
Conditions: Table 1, formula (III); 1 μM cyclic AMP
Description: A 3 g segment of bovine aortic media cut into pieces with scissors was homogenized with an ultra-turrax then a potter glass/glass homogenizer in 7 volumes by weight of buffer A containing a protease inhibitor cocktail (20 mM Tris-HCl, 0.25 M saccharose, 2 mM magnesium acetate, 1 mM dithiothreitol, 5 mM EGTA, 2000 U/ml aprotinin, 10 mg/l leupeptin and 10 mg/l soya trypsic inhibitor). The homogenizate was centrifuged at 105,000 g for 1 hour. […] The column was washed until there was no detectable absorption at 280 nm, then eluted with a linear gradient of NaCl (0–0.5 M) in buffer B. 3-ml fractions were collected and enzyme activity was determined under the conditions described hereinafter to localize the different enzymes PDE1, PDE3, PDE4 and PDE5, which were aliquoted and frozen at −80° C.
The nucleoside formed was separated from the nucleotides by anion exchange chromatography. Nucleoside radioactivity was determined by liquid scintillation counting.

COc1ccc(-c2ccc(C3=NN(C)C(=O)Cc4cc(OC)c(OC)cc43)cc2)cc1 [IIIao, 7,8-dimethoxy-1-[4-(4-methoxyphenyl)phenyl]-3-methyl-3,5-dihydro-4H-2,3-benzodiazepin-4-one] and COc1cc2c(cc1OC)C(c1ccc(-c3ccccc3C)cc1)=NN(C)C(=O)C2 [IIIaq, 7,8-dimethoxy-3-methyl-1-[4-(2-methylphenyl)phenyl]-3,5-dihydro-4H-2,3-benzodiazepin-4-one] are within 0.2 log units of each other in pIC50: 5.77 for the first, 5.72 for the second.

Compared with COc1cc2c(cc1OC)C(c1ccc(-c3cccs3)cc1)=NN(C)C(=O)C2 [IIIau, 7,8-dimethoxy-3-methyl-1-[4-(2-thienyl)phenyl]-3,5-dihydro-4H-2,3-benzodiazepin-4-one], CCOc1cc2c(cc1OCC)C(c1cc3ccccc3s1)=NN(C)C(=O)C2 [IIIba, 1-(2-benzo[b]thienyl)-7,8-diethoxy-3-methyl-3,5-dihydro-4H-2,3-benzodiazepin-4-one] is 0.26 log units lower in pIC50: 5.42 for the first, 5.16 for the second.

Same assay, conditions: Table 1, formula (III); compound at 10 μM

First: CCN1N=C(c2ccccc2)c2cc(OC)c(OC)cc2CC1=O [IIIag, 3-ethyl-7,8-dimethoxy-1-phenyl-3,5-dihydro-4H-2,3-benzodiazepin-4-one]
Second: CCCN1N=C(c2ccccc2)c2cc(OC)c(OC)cc2CC1=O [IIIaf, 7,8-dimethoxy-1-phenyl-3-n-propyl-3,5-dihydro-4H-2,3-benzodiazepin-4-one]
The “PDE4 percentage inhibition at 10 μM” value of the first is higher: 36% for the first, 30% for the second.

In the case of CCCCCCCCCCCCN1N=C(c2ccccc2)c2cc(OC)c(OC)cc2CC1=O [IIIad, 3-n-dodecyl-7,8-dimethoxy-1-phenyl-3,5-dihydro-4H-2,3-benzodiazepin-4-one], the “PDE4 percentage inhibition at 10 μM” value was 3.9%.

Same assay, conditions: Table 2, formula (XXII); 1 μM cyclic AMP

CCOc1cc2c(cc1OC)C(c1ccccc1)=NC(c1ccccc1)C(=O)N2 (stereo not drawn) [XXIIba, 3,5-diphenyl-8-ethoxy-7-methoxy-1,3-dihydro-2H-1,4-benzodiazepin-2-one] and COc1cc2c(cc1OC)C(c1ccccc1)=NC(c1ccccc1)C(=O)N2 (stereo not drawn) [XXIIaz, 7,8-dimethoxy-3,5-diphenyl-1,3-dihydro-2H-1,4-benzodiazepin-2-one] are within 0.2 log units of each other in pIC50: 5.17 for the first, 5.02 for the second.

Same assay, conditions: Table 2, formula (XXII); compound at 10 μM

First: COc1cc2c(cc1OC)C(c1ccccc1)=NC(Cc1c[nH]cn1)C(=O)N2 (stereo not drawn) [XXIIar, 7,8-dimethoxy-3-(1H-imidazol-4-ylmethyl)-5-phenyl-1,3-dihydro-2H-1,4-benzodiazepin-2-one]
Second: COc1cc2c(cc1OC)C(c1ccccc1)=NC(Cc1c[nH]c3ccccc13)C(=O)N2 (stereo not drawn) [XXIIas, 7,8-dimethoxy-3-(1H-indol-3-ylmethyl)-5-phenyl-1,3-dihydro-2H-1,4-benzodiazepin-2-one]
The “PDE4 percentage inhibition at 10 μM” value of the first is higher: 49.3% for the first, 41.3% for the second.

First: COc1ccc2c(c1)NC(=O)CN=C2c1ccccc1 [XXIIan, 8-methoxy-5-phenyl-1,3-dihydro-2H-1,4-benzodiazepin-2-one]
Second: COc1ccc2c(c1)C(c1ccccc1)=NCC(=O)N2 [XXIIao, 7-methoxy-5-phenyl-1,3-dihydro-2H-1,4-benzodiazepin-2-one]
The “PDE4 percentage inhibition at 10 μM” value of the first is higher: 12.1% for the first, 11.5% for the second.

COc1ccc2c(c1)C(c1cccc(C(F)(F)F)c1)=NCC(=O)N2 [XXIIae, 7-methoxy-5-[3-(trifluoromethyl)phenyl]-1,3-dihydro-2H-1,4-benzodiazepin-2-one] was tested, and the “PDE4 percentage inhibition at 10 μM” value was 21%.

Same assay, conditions: Table 3, formula (II); 1 μM cyclic AMP

CCN1C(=O)CN=C(c2ccc(Br)cc2)c2cc(OC)c(OC)cc21 [IIbl, 5-(4-bromophenyl)-1-ethyl-7,8-dimethoxy-1,3-dihydro-2H-1,4-benzodiazepin-2-one] and COc1cc2c(cc1OC)N(C)C(=O)CN=C2c1ccc(Br)cc1 [IIba, 5-(4-bromophenyl)-7,8-dimethoxy-1-methyl-1,3-dihydro-2H-1,4-benzodiazepin-2-one] are within 0.2 log units of each other in pIC50: 4.82 for the first, 4.77 for the second.

Going from CCN1C(=O)C(Cc2cccc(C(F)(F)F)c2)N=C(c2ccccc2)c2cc(OC)c(OC)cc21 (stereo not drawn) [IIdb, 1-ethyl-7,8-dimethoxy-5-phenyl-3-[3-(trifluoromethyl)benzyl]-1,3-dihydro-2H-1,4-benzodiazepin-2-one] to CCN1C(=O)C(Cc2cccc(OC)c2)N=C(c2ccccc2)c2cc(OC)c(OC)cc21 (stereo not drawn) [IIdc, 1-ethyl-7,8-dimethoxy-3-(3-methoxybenzyl)-5-phenyl-1,3-dihydro-2H-1,4-benzodiazepin-2-one], the pIC50 rises from 4.64 to 5.29 (0.65 log units).

CCN1C(=O)CN=C(c2cccc(Br)c2)c2cc(OC)c(OC)cc21 [IIbm, 5-(3-bromophenyl)-1-ethyl-7,8-dimethoxy-1,3-dihydro-2H-1,4-benzodiazepin-2-one] and COc1cccc(C2=NCC(=O)N(C)c3cc(OC)c(OC)cc32)c1 [IIal, 7,8-dimethoxy-5-(3-methoxyphenyl)-1-methyl-1,3-dihydro-1,4-benzodiazepin-2-one] are within 0.2 log units of each other in pIC50: 5.14 for the first, 5.00 for the second.

CCN1C(=O)C(Cc2cccc(-c3ccccc3)c2)N=C(c2ccccc2)c2cc(OC)c(OC)cc21 (stereo not drawn) [IIcu, 3-(1,1′-biphenyl-3-ylmethyl)-1-ethyl-7,8-dimethoxy-5-phenyl-1,3-dihydro-2H-1,4-benzodiazepin-2-one] and CCN1C(=O)C(Cc2ccccc2)N=C(c2ccccc2)c2cc(OC)c(OC)cc21 (stereo not drawn) [IIcq, 3-benzyl-1-ethyl-7,8-dimethoxy-5-phenyl-1,3-dihydro-2H-1,4-benzodiazepin-2-one] are within 0.2 log units of each other in pIC50: 5.32 for the first, 5.13 for the second.

COc1ccc(C2=NCC(=O)N(C)c3cc(OC)c(OC)cc32)cc1 [IIaw, 7,8-dimethoxy-5-(4-methoxyphenyl)-1-methyl-1,3-dihydro-1,4-benzodiazepin-2-one] and COc1cc2c(cc1OC)N(C)C(=O)CN=C2/C=C/c1ccccc1 [IIas, 7,8-dimethoxy-1-methyl-5-[(E)-2-phenylethenyl]-1,3-dihydro-2H-1,4-benzodiazepin-2-one] are within 0.2 log units of each other in pIC50: 5.00 for the first, 5.08 for the second.

CCN1C(=O)C(Cc2cccc(C(N)=O)c2)N=C(c2ccccc2)c2cc(OC)c(OC)cc21 (stereo not drawn) [IIcs, 3-[(1-ethyl-7,8-dimethoxy-2-oxo-5-phenyl-2,3-dihydro-1H-1,4-benzodiazepin-3-yl)methyl]benzamide] and CCOc1cc2c(cc1OCC)N(C)C(=O)CN=C2c1ccccc1 [IIbf, 7,8-diethoxy-1-methyl-5-phenyl-1,3-dihydro-2H-1,4-benzodiazepin-2-one] are within 0.2 log units of each other in pIC50: 5.90 for the first, 6.07 for the second.

With CCN1C(=O)CN=C(c2ccc(C#Cc3ccccc3)cc2)c2cc(OC)c(OC)cc21 [IIbr, 1-ethyl-7,8-dimethoxy-5-[4-(phenylethynyl)phenyl]-1,3-dihydro-2H-1,4-benzodiazepin-2-one] the pIC50 was 5.18 and 5.42.

Same assay, conditions: Table 3, formula (II); compound at 10 μM

Going from COc1cc2c(cc1OC)N(C)C(=O)CN=C2c1ccco1 [IIah, 5-(2-furyl)-7,8-dimethoxy-1-methyl-1,3-dihydro-1,4-benzodiazepin-2-one] to COc1cc2c(cc1OC)N(C)C(=O)CN=C2c1ccc(F)cc1 [IIad, 7,8-dimethoxy-5-(4-fluorophenyl)-1-methyl-1,3-dihydro-2H-1,4-benzodiazepin-2-one], the “PDE4 percentage inhibition at 10 μM” value falls from 36% to 23%.

Compared with CCN1C(=O)C(Cc2ccc(Cl)cc2Cl)N=C(c2ccccc2)c2cc(OC)c(OC)cc21 (stereo not drawn) [IIco, 3-(2,4-dichlorobenzyl)-7,8-dimethoxy-1-ethyl-5-phenyl-1,3-dihydro-2H-1,4-benzodiazepin-2-one], CCN1C(=O)C(Cc2cc(Br)cc(Br)c2)N=C(c2ccccc2)c2cc(OC)c(OC)cc21 (stereo not drawn) [IIbx, 3-(3,5-dibromobenzyl)-7,8-dimethoxy-1-ethyl-5-phenyl-1,3-dihydro-2H-1,4-benzodiazepin-2-one] is lower in “PDE4 percentage inhibition at 10 μM” value: 34.3% for the first, 18% for the second.

First: CCN1C(=O)C(Cc2ccc(-c3ccccc3)cc2)N=C(c2ccccc2)c2cc(OC)c(OC)cc21 (stereo not drawn) [IIck, 3-(1,1′-biphenyl-4-ylmethyl)-1-ethyl-7,8-dimethoxy-5-phenyl-1,3-dihydro-2H-1,4-benzodiazepin-2-one]
Second: CCN1C(=O)C(CC#N)N=C(c2ccccc2)c2cc(OC)c(OC)cc21 (stereo not drawn) [IIcb, (1-ethyl-7,8-dimethoxy-2-oxo-5-phenyl-2,3-dihydro-1H-1,4-benzodiazepin-3-yl)acetonitrile]
The “PDE4 percentage inhibition at 10 μM” value of the first is higher: 32.2% for the first, 28.5% for the second.

Compared with CCCN1C(=O)CN=C(c2ccccc2)c2cc(OC)c(OC)cc21 [IIbe, 7,8-dimethoxy-5-phenyl-1-propyl-1,3-dihydro-2H-1,4-benzodiazepin-2-one], COc1cc2c(cc1OC)N(CCO)C(=O)CN=C2c1ccccc1 [IIcx, 7,8-dimethoxy-1-(2-hydroxyethyl)-5-phenyl-1,3-dihydro-2H-1,4-benzodiazepin-2-one] is lower in “PDE4 percentage inhibition at 10 μM” value: 34.7% for the first, 9.9% for the second.

Compared with COc1ccc2cc(C3=NCC(=O)N(C)c4cc(OC)c(OC)cc43)ccc2c1 [IIap, 7,8-dimethoxy-5-(6-methoxy-2-naphthyl)-1-methyl-1,3-dihydro-1,4-benzodiazepin-2-one], CCN1C(=O)C(CC(N)=O)N=C(c2ccccc2)c2cc(OC)c(OC)cc21 (stereo not drawn) [IIcw, 2-(1-ethyl-7,8-dimethoxy-2-oxo-5-phenyl-2,3-dihydro-1H-1,4-benzodiazepin-3-yl)acetamide] is lower in “PDE4 percentage inhibition at 10 μM” value: 18% for the first, 9.4% for the second.

CCN1C(=O)CN=C(c2ccccc2)c2cc(O)c(O)cc21 [IIbk, 1-ethyl-7,8-dihydroxy-5-phenyl-1,3-dihydro-2H-1,4-benzodiazepin-2-one] was tested, and the “PDE4 percentage inhibition at 10 μM” value was 14.2%.

Same assay, conditions: Table 3, formula (II); compound at 10 μM; 10 µM

CCN1C(=O)C(Cc2ccc(Cl)cc2)N=C(c2ccccc2)c2cc(OC)c(OC)cc21 (stereo not drawn) [IIcn, 3-(4-chlorobenzyl)-1-ethyl-7,8-dimethoxy-5-phenyl-1,3-dihydro-2H-1,4-benzodiazepin-2-one] was tested, and the “PDE4 percentage inhibition at 10 μM” value was 45%.
